Results: PubChem BioAssay AID1918931 (Molecular Pharmacology Branch, DTP, NCI, 2023)
“And” between values parts separate entries of the source, which are not always exact repeats. Identical values can stand only once.

System: 138582-337-R-J1-PDC complex spheroid viability
Assay: Anticancer human tumor 138582-337-R-J1-PDC patient-derived Merkel cell tumor cell line growth inhibition
Settings: for viability, T/C: stronger effect = lower value
Description: Multicellular complex tumor spheroid response to LSD1 Inhibitor Iadademstat in combination with a variety of drugs and investigational agents in selected tumor cell lines
The current study was undertaken to assess response to LSD1 inhibitors in combination with standard-of-care drugs and investigational agents in solid tumor complex spheroid models as well as in the K-562 leukemia. Complex spheroids include a stromal component modeled by human endothelial cells (HUVEC) and fibroblasts modeled by human mesenchymal stem cells (MSCs). The concentration ranges selected for each drug and investigational agent were based upon clinically achievable concentrations if the clinical Cmax of the agent was known.
Compounds. The drugs and investigational agents used in this study are listed on Table 1. All of the agents used, including staurosporine (NSC755774) and gemcitabine (NSC613327), were obtained from the Developmental Therapeutics Program, NCI. FDA-approved anticancer drugs are available from the NCI at http://dtp.nci.nih.gov/branches/dscb/oncology_drugset_explanation.html. Drugs and investigational agents were >95% pure by proton nuclear magnetic resonance (NMR) and liquid chromatography/mass spectrometry (LC/MS). Stock solutions were prepared at 400x in DMSO, stored at -70 degrees C, and diluted in fresh medium prior to their use. The final concentration of DMSO in cell culture wells never exceeded 0.25% (v/v). The FDA-approved anticancer drug set is available from the Developmental Therapeutics Program at https://dtp.cancer.gov/organization/dscb/obtaining/available_plates.htm. All drugs and investigational agents were tested over a range starting from a high concentration at or near the clinical Cmax and decreasing in half-log increments. If the clinical Cmax for an agent had not been determined, the highest concentration tested was 10 microM.
Cell Lines. The patient-derived cancer cell (PDC) lines: 292921-168-R-J2-PDC, K24384-001-R-PDC, and 521955-158-R2-J5-PDC pancreatic carcinomas, 556581-035-R-J1 ovarian carcinoma, 324938-238-R-J1-PDC, 855422-203-R-J1-PDC and 883617-216-R-J1-PDC urothelial bladder carcinomas, 743489-274-T-PDC renal cell carcinoma, 138582-R-J1 Merkel cell tumor, K60290-347-R-J1 and K57222-313-R-J1-PDC glioblastomas, 653999-131-R-J2-PDC, LG0703-F948-PDC, and 349418-098-R-PDC non-small cell lung carcinomas, 885512-296-R-J2-PDC, 171881-019-R-J1-PDC breast carcinomas and 186277-243-T-J2-PDC and 233499-124-R-J2-PDC colon carcinomas were obtained from the NCI Patient-Derived Models Repository (PDMR, https://pdmr.cancer.gov). The established cell lines NCI/ADR-RES (RRID:CVCL_14520 and OVCAR-5 (RRID:CVCL_1628) ovarian carcinomas, 786-O (RRID:CVCL_1051) and A498 (RRID:CVCL_A498) renal cell carcinoma, NCI-H211 (ATCC, cat. CRL-5824; RRID:CVCL_1529), NCI-H196 (ATCC, cat. CRL-5823, RRID:CVCL_1509), SW 1271 (ATCC, cat. CRL-2177, RRID:CVCL_1716) and NCI-H1876 (ATCC, cat. CRL-5902, RRID:CVCL_1503) small cell lung carcinomas, MDA-MB-231 (RRID:CVCL_0062) and MDA-MB-468 (RRID:CVCL_0419)breast carcinomas (10-12). Pooled donor human umbilical vein endothelial cells (HUVEC, Lonza, cat. CC-2519) and human mesenchymal stem cells (hMSC, Lonza, cat. PT-2501) were purchased from Lonza (Walkersville, MD).
Cell Culture. All cells were maintained in an incubator at 37 degrees C and 5% CO2 with 95% humidity. The PDC lines were cultured according to standard operating procedures established by the NCI PDMR (https://pdmr.cancer.gov). Briefly all PDCs were thawed and cultured in Matrigel-coated flasks prepared with a working solution of 1X Ham's F-12 nutrient mix, without supplementation (Invitrogen, Waltham, MA, cat. 11765054), 100 U/mL penicillin-streptomycin (Invitrogen, cat. 15140122), and 2.5% Matrigel (Corning Inc., Corning, NY, cat. 354248) for the first three passages. […]
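Further: spheroids exposed to agents for 7 days.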
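Wherever viability, T/C is given: 100% = DMSO vehicle control viability.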

| SMILES | viability, T/C (compound 0.0316 µM) | viability, T/C (compound 0.1 µM) | viability, T/C (compound 0.316 µM) | viability, T/C (compound 1 µM) | IC50 (curve of compound) | viability, T/C (compound 0.00949 µM) | viability, T/C (compound 0.03 µM) | viability, T/C (compound 0.0949 µM) | viability, T/C (compound 0.3 µM) | also measured |
| --- | --- | --- | --- | --- | --- | --- | --- | --- | --- | --- |
| COc1ccc([C@@H](O)c2cc(-c3ncnc4cc(N5CCOCC5)ccc34)c(F)cc2Cl)nn1 | 92.5% and 76.9% | 79.5% and 91.7% | 64.9% and 66.6% | 50.7% and 71.1% | 1340 nM and 2680 nM |  |  |  |  | viability, T/C (compound 3.16 µM): 45.5% and 46%; viability, T/C (compound 10 µM): 27.3% and 20.6% |
| Cn1ncnc1C1c2n[nH]c(=O)c3cc(F)cc(c23)NC1c1ccc(F)cc1 (stereo not drawn) | 94.4% and 70.4% | 91.1% and 67.1% |  |  | > 100 nM |  |  |  |  | viability, T/C (compound 0.000316 µM): 96.7% and 103%; viability, T/C (compound 0.001 µM): 93.5% and 95.9%; viability, T/C (compound 0.00316 µM): 83.5% and 99.5%; viability, T/C (compound 0.01 µM): 86.7% and 92.9% |
| NC1CC1c1ccc(-c2cccc(O)c2)cc1 (stereo not drawn) |  | 75.3% |  |  |  |  |  |  |  | IC50 (compound alone, run of 02/01/2022): > 10000 nM |
| NC1CCC(NC2CC2c2ccccc2)CC1 (stereo not drawn) |  |  | 95.6% and 95.3% |  |  |  |  |  |  | IC50 (compound alone, run of 01/24/2022): > 10000 nM |
| NS(=O)(=O)OCC1CC(n2ccc3c(NC4CCc5ccccc54)ncnc32)CC1O (stereo not drawn) |  |  |  |  | 504 nM and 82 nM | 96% and 74.9% | 104% and 63.2% | 93.9% and 50.6% | 67.3% and 30.4% | viability, T/C (compound 0.949 µM): 28% and 26.4%; viability, T/C (compound 3 µM): 27.5% and 32.5% |
| Nc1ccccc1NC(=O)c1ccc(CNC(=O)OCc2cccnc2)cc1 |  |  |  |  | 1160 nM and 279 nM | 96.2% and 67% | 93.9% and 66.7% | 86.3% and 61.3% | 80.7% and 49.9% | viability, T/C (compound 0.949 µM): 61.3% and 13.2%; viability, T/C (compound 3 µM): 4.61% and 0.47% |
| Nc1ccn(C2OC(CO)C(O)C2(F)F)c(=O)n1 (stereo not drawn) |  |  |  |  | > 300 nM | 86.5% and 77.4% | 82.4% and 55.1% | 80% and 59.3% | 112% and 53.6% | viability, T/C (compound 0.000949 µM): 80.2% and 102%; viability, T/C (compound 0.003 µM): 94.3% and 100% |
| Nc1ncn(C2CC(O)C(CO)O2)c(=O)n1 (stereo not drawn) | 90% and 123% | 83.7% and 111% | 112% and 122% | 112% and 91.2% | > 1000 nM |  |  |  |  | viability, T/C (compound 0.00316 µM): 102% and 109%; viability, T/C (compound 0.01 µM): 78.7% and 124% |
| Nc1ncn(C2CC(O)C(CO)S2)c(=O)n1 (stereo not drawn) |  |  |  |  | > 300 nM | 87.8% and 94.3% | 94.6% and 92.3% | 91.3% and 93.4% | 80.5% and 74.7% | viability, T/C (compound 0.000949 µM): 96.8% and 93.8%; viability, T/C (compound 0.003 µM): 82.8% and 110% |
| O=C(C=Cc1cccc(S(=O)(=O)Nc2ccccc2)c1)NO |  |  |  |  | 616 nM and 84.4 nM | 96.1% and 76.4% | 91.5% and 67.6% | 90% and 49.2% | 73.3% and 23.6% | viability, T/C (compound 0.949 µM): 36% and 0.96% |
| O=C(C=Cn1cnc(-c2cc(C(F)(F)F)cc(C(F)(F)F)c2)n1)NNc1cnccn1 | 24.6% and 29.2% | 15.6% and 17.7% | 18.6% and 17.6% | 16.4% and 15.4% | 9.91 nM and 13 nM |  |  |  |  | viability, T/C (compound 0.00316 µM): 79.5% and 60.6%; viability, T/C (compound 0.01 µM): 49.6% and 56.1% |
| O=C(c1cc(Cc2n[nH]c(=O)c3ccccc23)ccc1F)N1CCN(C(=O)C2CC2)CC1 | 106% and 90% | 71.7% and 93.4% | 96.6% and 98.8% | 83.5% and 71.4% | > 10000 nM |  |  |  |  | viability, T/C (compound 3.16 µM): 78% and 57.2%; viability, T/C (compound 10 µM): 82.9% and 63.8% |
